Laboratory results reported in PMC13503280, “A pharmacological modality to sequester homomeric proteins” (Nature Chemical Biology, 2026).

Key:
Keap1 and BCL6 [1] = molecular target: T1, Keap1 and BCL6 (Homo sapiens, UniProt P41182+Q14145); test: WB of Keap1 and BCL6 in Mino cells (hetero-PINCH); assay type: cell-based; set-up: Mino cells that express high levels of BCL6; endogenous in cells; host or cells: Mino; OCI-AML2; settings: 20 h
Protocol: (§1) Cells were incubated with DMSO at 0.1% or with compound in concentrations ranging 10–20,000 nM for 20 h unless indicated differently. Following incubation, lysis was performed in RIPA buffer and the samples were measured for total protein quantification by BCA assay (Thermo Fisher Scientific, 23225). Then, 20–40 μg of each sample was loaded and run on an SDS–PAGE gel, before transferring onto a nitrocellulose membrane using a Trans-Blot Turbo system (Bio-Rad) and blocking using a 5% BSA in TBS-T (w/v) solution for 1 h at room temperature. Incubation with primary antibodies (mouse anti-BCL-6 (sc-7388, Santa Cruz, 1:500; overnight at 4 °C), mouse anti-Keap1 (sc-365626, Santa Cruz, 1:500; overnight at 4 °C), rabbit anti-LDHA (4H18L6, Thermo Fisher, 1:1,000; overnight at 4 °C), mouse anti-NQO2 (sc-271665, Santa Cruz, 1:500; overnight at 4 °C), rabbit anti-c-Myc (5605, Cell Signaling, 1:1,000; overnight at 4 °C) and mouse anti-β-actin (3700, Cell Signaling, 1:1,000; 1 h at room temperature) was performed and then the membranes were washed and incubated with a horseradish-peroxidase-conjugated secondary antibody (mouse 7076/rabbit 7074, Cell Signaling) at room temperature for 1 h. Imaging of the chemiluminescence signal was performed using a ChemiDoc XRS+ instrument (Bio-Rad). Primary band quantifications were normalized against β-actin bands.

Keap1 and BCL6 [2] = molecular target: T1, Keap1 and BCL6; test: WB of Keap1 and BCL6 in OCI-AML2 cells (hetero-PINCH); assay type: cell-based; set-up: endogenous in cells; host or cells: OCI-AML2; settings: 20 h
Protocol: as §1

Keap1 = Keap1 (Homo sapiens, UniProt Q14145); test: WB of Keap1 in HEK 293 cells (hetero-PINCH); assay type: cell-based; set-up: endogenous in cells; host or cells: HEK 293 (ATCC CRL-1573); settings: HEK 293 cells (does not express BCL6), 20 h
Protocol: as §1

LDHA [3] = molecular target: T2, LDHA (Homo sapiens, UniProt P00338); test: DLS of recombinant LDHA; assay type: biochemical; set-up: The gene encoding full-length WT human LDHA was cloned into pET28; His6 tag followed by a tobacco etch virus protease cleavage site (N); made in house; host or cells: Escherichia coli BL21(DE3); settings: room temperature, over time
Protocol: DLS samples were prepared in the respective protein’s elution buffer, to which 0.01% Tween was added, along with the compound from a DMSO stock to obtain a final DMSO concentration of 2%. Samples were prepared at room temperature and measured at a constant temperature of 25 °C. All samples were passed through 0.1-μm filters and then placed in a clear-bottom black 384-well plate. DLS data were recorded using a DynaproPlate Reader III (Wyatt Technology). Data were processed with the supplied DYNAMICS software.

LDHA [4] = molecular target: T2, LDHA; test: Immunostaining of LDHA in U2OS cells; assay type: cell-based; set-up: endogenous in cells; host or cells: U2OS (ATCC HTB-96); settings: 5µM, 20 hours
Protocol: For spinning disk confocal microscopy, cells were allowed to adhere to a 14-mm glass-bottom plate (MatTek P35G-1.5-14-C), followed by fixation with 3.7% formaldehyde for 5 min and permeabilization with 0.1% Triton X-100 for 10 min. The cells were then blocked with 5% BSA for 60 min at room temperature. Cells were stained with primary antibody, at a concentration of 1:100, for 3 h at room temperature and were then subjected to a secondary antibody conjugated to Alexa Fluor, at a concentration of 1:100–500, for 1 h at room temperature. Lastly, cells were also stained with DAPI for 10 min at room temperature.

BCL6(1–275)–GFP = molecular target: T3, BCL6(1–275)–GFP (Homo sapiens, UniProt P41182); test: BCL6(1–275)–GFP puncta in HEK 293 cells; assay type: cell-based; settings: HEK 293 cells overexpressing BCL6(1–275)–GFP
T3 construct: HEK 293 cells expressing GFP fused to BCL6 (residues 1–275); host or cells: HEK 293
Protocol: Automatic aggregate segmentation was conducted using the surface module with manual threshold fixed for all images of the same experiment (default 2-pixel smoothing, background subtraction with 0.9-μm largest sphere, morphological split with 0.5-μm seed point diameter). Analysis was conducted per cell by manually selecting regions covering the individual cell and not overlapping with neighboring cells.

HEK 293 cells = test: Viability measurements, HEK 293 cells; assay type: cell-based; settings: HEK 293 cells (lack BCL6 expression), 72 h
Protocol: Cells were seeded in a transparent-bottom, black 96-well plate, at 15,000 cells per well in sixfold replications. in 90 µl of medium and left to adhere for at least 4 h. The cells were then treated with the respective compound by adding 10 µl of medium–-compound mixture for a final volume of 100 µl in each well. Cell-Titer blue reagent was used to measure viability according to the manufacturer’s instructions. Plate reader measurements were performed on a Tecan Spark Control 10 M fluorescence system.

[5] = molecular target: T4, recombinant BCL6 BTB domain (Homo sapiens, UniProt P41182); test: Intact protein LC–MS labeling of BCL6 BTB domain; assay type: binding; settings: 2 μM protein, 10 μM compound, incubation 90 min
T4 construct: The BCL6 BTB domain (5–129) was cloned into the pET28-bdSumo vector; His–bdSumo (N, cleaved yes); made in house; host or cells: E. coli BL21(DE3) (as described for Keap1 BTB)
Text: A covalent inhibitor of BCL6 that irreversibly binds a tyrosine residue in the BTB domain dimeric interface was previously reported. […] Importantly, the linker had to be long enough to minimize potential steric clashes between bridged homodimers yet short enough to forbid intramolecular binding of subunits from the same homodimer.
Extended Data Fig. 1 SAR of BCL6 targeting PINCHs. a. […] Representative results from 3 independent experiments, and c. These compounds’ structures. Source data

Keap1, sequence (Q14145 whole entry): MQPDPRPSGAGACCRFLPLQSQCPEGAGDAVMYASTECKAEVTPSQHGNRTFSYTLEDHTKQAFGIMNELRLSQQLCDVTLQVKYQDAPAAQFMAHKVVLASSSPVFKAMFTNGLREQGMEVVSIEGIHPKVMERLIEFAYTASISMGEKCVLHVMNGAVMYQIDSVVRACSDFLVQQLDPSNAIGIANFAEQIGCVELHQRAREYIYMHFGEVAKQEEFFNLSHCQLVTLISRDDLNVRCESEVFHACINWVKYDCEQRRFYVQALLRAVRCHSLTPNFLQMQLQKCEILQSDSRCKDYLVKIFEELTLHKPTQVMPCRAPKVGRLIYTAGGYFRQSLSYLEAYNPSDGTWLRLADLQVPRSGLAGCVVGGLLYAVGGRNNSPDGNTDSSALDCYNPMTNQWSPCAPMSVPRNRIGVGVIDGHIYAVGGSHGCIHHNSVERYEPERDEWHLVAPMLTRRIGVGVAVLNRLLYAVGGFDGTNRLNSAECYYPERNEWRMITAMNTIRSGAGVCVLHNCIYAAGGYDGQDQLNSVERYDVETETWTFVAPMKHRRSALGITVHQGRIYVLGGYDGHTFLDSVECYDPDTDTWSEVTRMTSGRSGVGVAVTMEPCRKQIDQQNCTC

What does the source list for COc1cc(Nc2cc(NCc3cccc(S(=O)(=O)F)c3)ccc2Cl)cc2cc(OCC(=O)NCCOCCOCCOCCOCCOCCOCCOCCOCCOCCOCCOCCOCCNC(=O)[C@]34CCC(C)(C)C[C@H]3[C@H]3C(=O)C=C5[C@@]6(C)C=C(C#N)C(=O)C(C)(C)[C@@H]6CC[C@@]5(C)[C@]3(C)CC4)c(=O)n(C)c12 [EL230]?
Keap1 and BCL6 levels in soluble/insoluble phase (WB) (Keap1 and BCL6 [1]): reduction in both Keap1 and BCL6 levels in the soluble phase; Keap1 and BCL6 levels (WB) (Keap1 and BCL6 [2]): Keap1 and BCL6 were downregulated simultaneously; Keap1 level (WB) (Keap1): Keap1 remained unchanged

Which “formation of larger species (DLS)” value (LDHA [3]) does the source give for Cc1nc2ccc(NC(=O)CC(NC(=O)CCCc3ccc(CC(C(=O)O)C(=O)O)cc3)C(=O)NCCOCCOCCOCCOCCNC(=O)C(CC(=O)Nc3ccc4nc(C)sc4c3)NC(=O)CCCc3ccc(CC(C(=O)O)C(=O)O)cc3)cc2s1 (centres unmarked) [OS-47B] here?
The value was “formation of larger species over time”.

And the “LDHA localization (immunostaining)” value (LDHA [4])?
The value was “no effect on LDHA localization”.

CNC(=O)COc1cc2cc(Nc3cc(NCc4cccc(S(=O)(=O)F)c4)ccc3Cl)cc(OC)c2n(C)c1=O [w8001] was tested. Which “BCL6–GFP puncta formation” value (BCL6(1–275)–GFP) did it give?
The value was “no such puncta”.

And the effect on viability (HEK 293 cells)?
Its effect on viability is “no compound affected the viability”.

And the “labeling of recombinant BCL6 BTB domain by intact protein LC–MS” value [5]?
The value was 100%.
